The values below come from US20170247366A1, “SUBSTITUTED 4-ALKOXYPICOLINAMIDE ANALOGS AS MGLUR5 NEGATIVE ALLOSTERIC MODULATORS AND METHODS OF MAKING AND USING THE SAME” (VANDERBILT UNIVERSITY, priority 2014, published 2017).

T1 sequence (P31424 21-1203): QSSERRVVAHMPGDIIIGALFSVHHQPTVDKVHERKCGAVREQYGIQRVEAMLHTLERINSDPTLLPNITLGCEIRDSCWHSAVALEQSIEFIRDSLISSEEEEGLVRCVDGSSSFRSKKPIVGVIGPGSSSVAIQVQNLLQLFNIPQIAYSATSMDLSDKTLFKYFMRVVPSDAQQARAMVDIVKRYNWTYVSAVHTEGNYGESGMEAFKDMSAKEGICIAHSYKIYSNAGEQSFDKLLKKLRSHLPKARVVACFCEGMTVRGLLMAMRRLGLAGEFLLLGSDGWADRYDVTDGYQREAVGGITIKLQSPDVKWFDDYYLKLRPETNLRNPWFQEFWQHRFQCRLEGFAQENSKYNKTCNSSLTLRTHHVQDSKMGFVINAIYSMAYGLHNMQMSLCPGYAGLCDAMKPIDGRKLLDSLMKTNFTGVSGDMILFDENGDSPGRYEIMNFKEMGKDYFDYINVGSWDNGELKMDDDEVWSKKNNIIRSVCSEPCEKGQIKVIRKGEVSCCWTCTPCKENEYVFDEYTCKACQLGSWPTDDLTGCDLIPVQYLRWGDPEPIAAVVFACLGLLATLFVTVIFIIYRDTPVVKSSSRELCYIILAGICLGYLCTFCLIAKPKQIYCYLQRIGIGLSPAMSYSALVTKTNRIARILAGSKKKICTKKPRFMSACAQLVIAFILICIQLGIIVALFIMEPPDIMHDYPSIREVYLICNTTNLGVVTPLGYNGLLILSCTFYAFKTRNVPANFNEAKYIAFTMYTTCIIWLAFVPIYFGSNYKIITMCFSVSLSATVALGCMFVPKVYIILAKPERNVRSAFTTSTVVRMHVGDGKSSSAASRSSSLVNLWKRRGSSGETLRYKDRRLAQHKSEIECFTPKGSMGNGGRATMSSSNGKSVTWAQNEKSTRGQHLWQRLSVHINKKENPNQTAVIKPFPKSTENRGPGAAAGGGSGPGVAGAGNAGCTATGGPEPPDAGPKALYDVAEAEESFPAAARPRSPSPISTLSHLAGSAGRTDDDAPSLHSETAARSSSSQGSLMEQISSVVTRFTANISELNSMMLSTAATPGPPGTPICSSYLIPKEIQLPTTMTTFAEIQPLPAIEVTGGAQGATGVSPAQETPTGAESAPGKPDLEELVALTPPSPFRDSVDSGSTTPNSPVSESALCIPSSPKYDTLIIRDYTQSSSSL

The assay concerns the target T1, rat mGluR5 (Rattus norvegicus, UniProt P31424).
T1 construct: expressed in transfected cells
Put plainly: mGluR5 calcium flux assay in HEK 293A cells, negative allosteric modulation of glutamate EC80 response. It counts as cell-based. The conditions noted are these: HEK cells transfected with rat mGluR5; glutamate EC80; ± is standard error of at least three experiments. On the procedure:
HEK 293A cells stably expressing either rat or human mGluR5 were plated in black-walled, clear-bottomed, poly-D-lysine coated 384-well plates in 20 μL of assay medium (DMEM containing 10% dialyzed FBS, 20 mM HEPES, 100 units/mL penicillin/streptomycin plus 250 ng/mL Fungizone, and 1 mM sodium pyruvate) at a density of 20K cells/well. The cells were grown overnight at 37° C. in the presence of 5% CO2. The next day, medium was removed and the cells incubated with 20 μL of 2.3 µM Fluo-4, AM prepared as a 2.3 mM stock in DMSO and mixed in a 1:1 ratio with 10% (w/v) pluronic acid F-127 and diluted in assay buffer (Hank's balanced salt solution, 20 mM HEPES, and 2.5 mM probenecid) for 45 minutes at 37° C. Dye was removed, 20 μL of assay buffer was added, and the plate was incubated for 5 minutes at room temperature.
Ca^2+ flux was measured using the Functional Drug Screening System (FDSS7000, Hamamatsu, Japan). After establishment of a fluorescence baseline for about 3 seconds, the compounds of the present invention were added to the cells, and the response in cells was measured. 2.3 minutes later an EC20 concentration of the mGluR5 receptor agonist glutamate was added to the cells, and the response of the cells was measured for 1.9 minutes; an EC80 concentration of agonist was added and readings taken for an additional 1.7 minutes. All test compounds were dissolved and diluted to a concentration of 10 mM in 100% DMSO. Compounds were then serially diluted 1:3 in DMSO into 10 point concentration response curves, transferred to daughter plates, and further diluted into assay buffer to a 2× stock. Calcium fluorescence measures were recorded as fold over basal fluorescence; raw data was then normalized to the maximal response to glutamate. Antagonism of the agonist response of the mGluR5 receptor in the present invention was observed as a decrease in response to nearly maximal concentrations of glutamate in the presence of compound compared to the response to glutamate in the absence of compound.
The raw data file containing all time points was used as the data source in the analysis template. This was saved by the FDSS as a tab-delimited text file. Data were normalized using a static ratio function (F/F0) for each measurement of the total 360 values per well divided by each well's initial value. Data were then reduced to peak amplitudes (Max−Initial Min) using a time range that starts approximately 3 seconds prior to the glutamate EC20/EC80 addition and continues for approximately 90-120 seconds. This is sufficient time to capture the peak amplitude of the cellular calcium response. Individual amplitudes were expressed as % EMax by multiplying each amplitude by 100 and then dividing the product by the mean of the amplitudes derived from the glutamate ECMax-treated wells. IC50 values for test compounds were generated by fitting the normalized values versus the log of the test compound concentration (in mol/L) using a 4 parameter logistic equation where none of the parameters were fixed. Each of the three values collected at each concentration of test compound were weighted evenly.
For NAMs with a CRC that plateaus above 10% Glu Max, the IC50 values are reported, the compound is designated a “partial NAM” and the % Glu Max is reported. […] Compounds without measurable activity are designated as “>30,000 nM” since the top concentration of compound tested in the assay is 30 µM. Exemplary data are provided in Tables 1 and 2 below.
Table 1 below lists specific compounds, experimentally determined molecular mass, and mGluR5 activity determined in a cell-based assay. The mGluR5 activity was determined using the metabotropic glutamate receptor activity assays in human embryonic kidney cells as described herein, wherein the human embryonic kidney cells were transfected with rat mGluR5. The mGluR5 activity data for some compounds are shown as the average of at least three experiments with the standard error in these cases. […]
In general terms: Calcium flux is commonly read through the fluorescence of an indicator in the cells.
The term IC50 denotes the point on the concentration scale where inhibition reaches its midpoint. As to `Cc1cc(OC2CCCC2)cc(C(=O)Nc2ccccn2)n1`, the IC50 was determined as 182 nM. Consider `Cc1cc(OC2CCCC2)cc(C(=O)Nc2nc(C)cs2)n1`, for which the IC50 came to 149 nM. For `Cc1cc(O[C@@H]2CCOC2)cc(C(=O)Nc2ccc(F)cn2)n1` the value was 41 ± 3 nM; for `Cc1cc(OC2CCC2)cc(C(=O)Nc2ccc(F)cn2)n1`, 182 nM; for `Cc1cc(OC2COC2)cc(C(=O)Nc2ccccn2)n1`, 66 nM. Then `Cc1cc(OC2COC2)cc(C(=O)Nc2nc(C)cs2)n1`, with 70 ± 10 nM. As to `Cc1cc(OC[C@@H]2CCOC2)cc(C(=O)Nc2ccc(F)cn2)n1`, the IC50 came to 469 nM. As for `Cc1cc(OC[C@H]2CCOC2)cc(C(=O)Nc2ccccn2)n1`, the concentration for half-maximal inhibition (IC50) amounted to 972 nM. In the case of `Cc1cc(OC[C@H]2CCOC2)cc(C(=O)Nc2nc(C)cs2)n1`, the IC50 was 364 nM. Then `COCCOc1cc(C)nc(C(=O)Nc2ccc(F)cn2)c1`, with 527 nM; and `Cc1cccc(NC(=O)c2cc(OC3COC3)cc(C)n2)n1`, with 59 nM; and `COc1cccc(NC(=O)c2cc(OC3COC3)cc(C)n2)n1`, with 1050 nM. For `Cc1cc(OC2COC2)cc(C(=O)Nc2cccc(Cl)n2)n1` the value was 162 nM; for `COc1ccc(NC(=O)c2cc(OC3COC3)cc(C)n2)nc1`, 1390 nM; for `Cc1cc(OC2COC2)cc(C(=O)Nc2ccc(Cl)cn2)n1`, 1530 nM. Then `Cc1cc(OC2CC3(COC3)C2)cc(C(=O)Nc2ccccn2)n1`, with 1680 nM; and `Cc1cc(OC2CC3(COC3)C2)cc(C(=O)Nc2nc(C)cs2)n1`, with 433 nM.

For the molecule `Cc1cc(OCC2COCCO2)cc(C(=O)Nc2ccc(F)cn2)n1` (centres unmarked), the IC50 was found to be 7680 nM.

Take `Cc1cc(OC2CCSC2)cc(C(=O)Nc2ccccn2)n1` (centres unmarked): the concentration for half-maximal inhibition (IC50) turned out to be 39 nM. For `Cc1cc(OC2CCSC2)cc(C(=O)Nc2nc(C)cs2)n1` (centres unmarked), the IC50 was 77 nM. With `Cc1ccc(NC(=O)c2cc(OC3COC3)cc(C)n2)nc1`, the IC50 came to 1480 nM.

For the molecule `Cc1cc(OC2CC3(COC3)C2)cc(C(=O)Nc2ccc(F)cn2)n1`, the IC50 amounted to 3710 nM. For `Cc1cc(OCC2COCCO2)cc(C(=O)Nc2ccccn2)n1` (centres unmarked) the value was 1780 nM; for `Cc1cc(OCC2COCCO2)cc(C(=O)Nc2nc(C)cs2)n1` (centres unmarked), 616 nM.

`Cc1cc(OC2CCSC2)cc(C(=O)Nc2ccc(F)cn2)n1` (centres unmarked): the IC50 was found to be 75 nM. Then `Cc1cc(OC2(C)COC2)cc(C(=O)Nc2ccc(F)cn2)n1`, with 863 nM. For `Cc1cc(O[C@H]2CO[C@H](C)C2)cc(C(=O)Nc2ccc(F)cn2)n1` the value was 175 ± 21 nM.

In the case of `Cc1cc(O[C@H]2CO[C@@H](C)C2)cc(C(=O)Nc2ccc(F)cn2)n1`, the IC50 worked out at 4470 ± 260 nM. Regarding `Cc1cc(O[C@H]2CO[C@H](C)C2)cc(C(=O)Nc2nc(C)cs2)n1`, the IC50 turned out to be 81 ± 13 nM. For `Cc1cc(OCC2CCOCC2)cc(C(=O)Nc2ccccn2)n1` the value was 1460 nM; for `Cc1cc(OCC2CCOCC2)cc(C(=O)Nc2nc(C)cs2)n1`, 610 nM; for `Cc1cc(OCC2CCCCO2)cc(C(=O)Nc2ccc(F)cn2)n1` (centres unmarked), not below 10000 nM. Take `Cc1cc(OC2CCS(=O)(=O)C2)cc(C(=O)Nc2ccc(F)cn2)n1` (centres unmarked): the IC50 was determined as 634 nM. For `Cc1cc(O[C@H]2CO[C@@H](C)C2)cc(C(=O)Nc2nc(C)cs2)n1` the value was 684 ± 107 nM; for `Cc1cc(OCC2CCOCC2)cc(C(=O)Nc2ccc(F)cn2)n1`, 5720 nM; for `Cc1cc(OCC2CCCCO2)cc(C(=O)Nc2ccccn2)n1` (centres unmarked), 2970 nM. Then `Cc1cc(OCC2CCCCO2)cc(C(=O)Nc2nc(C)cs2)n1` (centres unmarked), with 1920 nM; and `CC(=O)N1CC(Oc2cc(C)nc(C(=O)Nc3ccc(F)cn3)c2)C1`, with 756 ± 130 nM. Then `Cc1cc(OC2CN(S(C)(=O)=O)C2)cc(C(=O)Nc2ccc(F)cn2)n1`, with 1310 nM; and `CCOCCOc1cc(C)nc(C(=O)Nc2ccccn2)c1`, with 842 nM. `CCOCCOc1cc(C)nc(C(=O)Nc2ccc(F)cn2)c1`: the IC50 is 2100 nM. For `COCCOCCOc1cc(C)nc(C(=O)Nc2ccccn2)c1` the value was 2540 nM. For `COCCOCCOc1cc(C)nc(C(=O)Nc2nc(C)cs2)c1` the value was 954 nM.

Consider `COCCCOc1cc(C)nc(C(=O)Nc2ccc(F)cn2)c1`, for which the IC50 worked out at 2630 nM. In the case of `COC[C@H](C)Oc1cc(C)nc(C(=O)Nc2ccccn2)c1`, the IC50 is 2720 nM. Then `COC[C@H](C)Oc1cc(C)nc(C(=O)Nc2nc(C)cs2)c1`, with 932 nM; and `COC[C@@H](C)Oc1cc(C)nc(C(=O)Nc2ccc(F)cn2)c1`, with 9100 nM.

On to `CCOCCOc1cc(C)nc(C(=O)Nc2nc(C)cs2)c1`, for which the IC50 was 364 nM.

For the molecule `COCCOCCOc1cc(C)nc(C(=O)Nc2ccc(F)cn2)c1`, the IC50 stood at 6930 nM. As to `COCCCOc1cc(C)nc(C(=O)Nc2ccccn2)c1`, the IC50 was determined as 844 nM. In the case of `COCCCOc1cc(C)nc(C(=O)Nc2nc(C)cs2)c1`, the IC50 came to 506 nM. Turning to `COC[C@H](C)Oc1cc(C)nc(C(=O)Nc2ccc(F)cn2)c1`, the IC50 came to 7610 nM. For `COC[C@@H](C)Oc1cc(C)nc(C(=O)Nc2ccccn2)c1` the value was 2130 nM; for `COC[C@@H](C)Oc1cc(C)nc(C(=O)Nc2nc(C)cs2)c1`, 1030 nM.

In the case of `CO[C@H](C)COc1cc(C)nc(C(=O)Nc2ccccn2)c1`, the IC50 was found to be 194 nM. Then `CO[C@H](C)COc1cc(C)nc(C(=O)Nc2nc(C)cs2)c1`, with 145 nM. Then `CO[C@@H](C)COc1cc(C)nc(C(=O)Nc2ccc(F)cn2)c1`, with 4930 nM; and `Cc1cc(O[C@@H]2CCOC2)cc(C(=O)Nc2nc(CF)cs2)n1`, with 71 nM. For `Cc1cc(O[C@@H]2CCOC2)cc(C(=O)Nc2nc(C(F)F)cs2)n1` the value was 247 nM. `Cc1cc(O[C@@H]2CCOC2)cc(C(=O)Nc2nc(C(F)(F)F)cs2)n1`: the IC50 worked out at 2040 nM. Then `Cc1cc(O[C@@H]2CCOC2)cc(C(=O)Nc2nc(C3CC3)cs2)n1`, with 153 nM. Then `CO[C@H](C)COc1cc(C)nc(C(=O)Nc2ccc(F)cn2)c1`, with 718 nM. As to `CO[C@@H](C)COc1cc(C)nc(C(=O)Nc2ccccn2)c1`, the IC50 amounted to 2210 nM. Take `CO[C@@H](C)COc1cc(C)nc(C(=O)Nc2nc(C)cs2)c1`: the IC50 is 1050 nM.

For the molecule `Cc1cc(O[C@H]2CO[C@H](C)C2)cc(C(=O)Nc2nc(CF)cs2)n1`, the IC50 was determined as 180 nM. For `Cc1cc(O[C@H]2CO[C@H](C)C2)cc(C(=O)Nc2nc(C(F)F)cs2)n1` the value was 902 nM; for `Cc1cc(O[C@H]2CO[C@H](C)C2)cc(C(=O)Nc2nc(C(F)(F)F)cs2)n1`, 5200 nM; for `Cc1cc(O[C@H]2CO[C@H](C)C2)cc(C(=O)Nc2nc(C3CC3)cs2)n1`, 899 nM. Then `Cc1cc(O[C@@H]2CCOC2)cc(C(=O)Nc2nc(C)c(F)s2)n1`, with 171 nM; and `Cc1cc(OC2CSC2)cc(C(=O)Nc2ccc(F)cn2)n1`, with 37 nM.

Take `Cc1cc(OC2C[S+]([O-])C2)cc(C(=O)Nc2ccc(F)cn2)n1` (centres unmarked): the IC50 was 533 nM. Then `Cc1cc(OC2CS(=O)(=O)C2)cc(C(=O)Nc2ccc(F)cn2)n1`, with 742 nM; and `CC(=O)N1CC(Oc2cc(C)nc(C(=O)Nc3nc(C)cs3)c2)C1`, with 388 nM. For `Cc1cc(OC2CN(C(=O)CC(C)C)C2)cc(C(=O)Nc2nc(C)cs2)n1` the value was 1670 nM.
